We go through 13 compounds from paper PMC12428237, “Study on the Calcium Transport-Promoting Property and Mechanism of the Peptide–Calcium Complex DEEENDQVK–Ca Based on a Caco-2 Monolayer Model” (Foods, 2025).

For data set [1], the system named is Caco-2 monolayer. To be noted: cited from earlier work; for increase of intestinal calcium transport compared with the control group: within 30 min. The procedure:
With 1~2 mg/mL of DK, the tran ... || This study’s results align with earlier findings regarding peptide–calcium complexes.

Data set [2] deals with Caco-2 monolayer. Kind of data set: Fluo-4 AM fluorescence imaging of intracellular calcium influx. In kind it is cell-based, human. The settings on record: samples containing 150 μg/mL calcium, 24 h, Fluo-4 AM 4 μmol/L, confocal microscope. The procedure: Fluorescence imaging based on intracellular calcium influx was conducted to assess the calcium transport-promoting effect in the Caco-2 monolayer following the method of Men et al.. Log-phase cells were seeded at 1.5 × 10^5 cells/well in 35 mm laser confocal dishes and gently agitated to ensure uniform distribution. Cultures were maintained at 37 °C in 5% CO2 with daily medium replacement until confluent monolayers formed. Subsequently, CaCl2, DK + CaCl2, and DK–Ca solutions (each containing 150 μg/mL calcium) were added separately. The group without an added sample served as the control group. Following 24 h of incubation, the cells were washed thrice with prewarmed calcium-/magnesium-free HBSS buffer (pH 7.2). Under light-protected conditions, 200 µL of Fluo-4 AM (4 μmol/L) was applied to cover the cells. Following 30 min incubation at 37 °C and subsequent washes, cells were dark-adapted for 10 min at room temperature for de-esterification. Imaging was conducted using a confocal microscope (excitation at 496 nm, Zeiss LSM980 Airyscan2, Carl Zeiss, Germany ), followed by quantification of the fluorescence intensity with ImageJ 1.54 g software.
(Calcium assays in cells follow changes in intracellular calcium, usually with a dye or a luminescent sensor.)

The subject of data set [3] is Caco-2 monolayer. Description: Calcium transport assay in Caco-2 monolayer model. It counts as cell-based, human. The settings on record: 7.5 mM CaCl2 on AP side, AP to BL, HBSS pH 7.4, 37 °C, 120 min, calcium colorimetric kit 575 nm; mean ± SD, n = 3. The procedure:
(§1) Caco-2 cells (passages 15–30) were seeded at 1 × 10^5 cells/mL in Transwell chambers (12 mm, 0.4 μm pores, polycarbonate membrane, 1.12 cm^2 area) to establish a Caco-2 monolayer model. The culture medium (0.5 mL in the apical and 1.5 mL in the basolateral) was refreshed every 48 h (first week), then daily (next two weeks). The integrity of the Caco-2 cell monolayer model was verified by the following multiple indicators: Transepithelial electrical resistance (TEER) was monitored every 48 h using an epithelial voltohmmeter (RE1600, Beijing Jingong Hongtai Technology Co., Ltd., Beijing, China). Alkaline phosphatase (ALP) activity was measured on days 8, 12, 14, 16, and 21 after inoculation utilizing an ALP assay kit, following the manufacturer’s protocol. Transepithelial permeability was evaluated using sodium fluorescein following the method of Qiu et al..
Caco-2 monolayer models with a TEER value exceeding 500 Ω·cm^2 are permitted for calcium transport studies. Following three sequential washes with Hank’s balanced salt solution (HBSS; calcium/magnesium-free, pH 7.4), monolayers were equilibrated at 37 °C for 30 min. Afterward, the Transwell chambers were moved to fresh receiver plates for transport assays.
Concentration-dependent CaCl2 transport assay: 0.5 mL of CaCl2 solution (1.5~10 mM) was added to the apical (AP) side. The basolateral (BL) side contained 1.5 mL prewarmed HBSS. After 120 min incubation at 37 °C and 5% CO2, the BL side solution was collected for calcium transport analysis.
Time-dependent CaCl2 transport assay: The AP side contained 0.5 mL of 7.5 mM CaCl2 solution, and the BL side 1.5 mL prewarmed HBSS. At designated intervals (30~180 min), 1 mL BL side solution was collected and replaced with equal volumes of fresh HBSS buffer to maintain consistency.
Different concentrations of DK solution (0.5~2 mg/mL, 0.5 mL) containing 7.5 mM CaCl2, or 0.5 mL of DK–Ca solution (0.5~2 mg/mL), were added to the AP side. The BL side contained 1.5 mL prewarmed HBSS. The control group contained 7.5 mM CaCl2 alone on the AP side. At designated intervals (30~180 min), 1 mL BL side solution was collected and replaced with equal volumes of fresh HBSS buffer to maintain consistency.
Calcium concentration in the collected sample was measured using a calcium colorimetric assay kit at 575 nm. Transported calcium was calculated as follows:(1) Tn=1.5Cn+1×∑k=1n-1Ck […]

Data set [4] relates to Caco-2 monolayer. Description: Effect of dietary components (vitamin D3, phytic acid) on calcium transport in Caco-2 monolayer. In kind it is cell-based, human. The settings on record: 120 min, control without dietary component, n = 3. The procedure: Vitamin D3 (0.5 μmol/L, dissolved in 0.1% ethanol) or phytic acid (1.8 mM, with a of phytic acid/calcium molar ratio of 0.24) was added to the AP side to evaluate the effect of dietary components on calcium transport. The group without an added dietary component served as the control group. After 120 min incubation, the BL side solution was collected for calcium transport analysis.
In general terms: Caco-2 cells form a polarised layer with tight junctions and transporters.

The subject of data set [5] is Caco-2 cells. Kind of data set: MTT cell viability assay. It counts as cell-based, human. To be noted: 24 h, concentration range 0~5 mg/mL, n = 3. The procedure: Caco-2 cells were maintained in complete DMEM medium containing 20% (v/v) FBS, 1% non-essential amino acids, and penicillin-streptomycin (100 U/mL−100 μg/mL) at 37 °C under 5% CO2 atmosphere, with medium replacement every 48 h. At 80–90% confluency, cells were seeded into 96-well plates (1 × 10^4 cells/well). After 24 h of incubation, the original medium was exchanged for a new solution containing CaCl2 (0~5 mg/mL), DK (0~5 mg/mL), DK + CaCl2 (1:1 w/w, 0~5 mg/mL), DK–Ca (0~5 mg/mL), 2-APB (0~75 μmol/L), cytochalasin D (0~2 μg/mL), and mβCD (0~5 mmol/L). After 24 h of incubation, the cell viability was assessed by MTT [21].

Data set [6] has as its system Caco-2 monolayer. Description: Transepithelial permeability of sodium fluorescein (monolayer integrity). In kind it is in vitro ADME, human. The settings on record: Transwell, after 21 days of differentiation, mean ± SD. The procedure: as §1
For data set [7] the following is noted: cited from earlier work. From the text:
Dietary calcium supplementation offers a direct solution to calcium deficiency. However, traditional calcium supplements (e.g., calcium carbonate) suffer from limitations such as low bioavailability and gastrointestinal irritation, which lead to reduced efficacy. […] This enhanced performance is primarily attributed to the peptide ... || This study’s results align with earlier findings regarding peptide–calcium complexes.

Data set [8] deals with Caco-2 monolayers. To be noted: 120 min; cited from earlier work.
Procedure: To assess component changes in DK–Ca after 120 min of calcium-promoting transport, solutions collected from the AP and BL sides of the monolayer were subjected to RP-HPLC analysis.

Where two headings read alike, the source gives them in different places.

With `[Ca+2].[Cl-].[Cl-]` [CaCl2], the “decrease of calcium absorption by phytic acid” value in data set [1] is on record as 79.86%. For the same compound, in data set [2], the “fluorescence intensity (intracellular calcium influx) compared to the control group” value is listed as “significantly increased”. In data set [3], the transported calcium was found to be 27.55 ± 1.20 μg/well. Moreover, the “reduction of transported calcium by phytic acid compared to the control group” value in data set [4] (phytic acid 1.8 mM (phytic acid/calcium molar ratio 0.24) on AP side) is 49.11%. In addition, the “increase of transported calcium by vitamin D3 compared to the control group” value in data set [4] (vitamin D3 0.5 μmol/L on AP side) is 22.68%. `C=C1[C@@H](C)[C@H]2[C@H](Cc3ccccc3)NC(=O)[C@]23[C@H](OC(C)=O)/C=C/[C@@](C)(O)C(=O)[C@@H](C)C/C=C/[C@H]3[C@@H]1O` [cytochalasin D, Cytochalasin D]: the “cytotoxicity to Caco-2 cells” value in data set [5] is “no cytotoxicity”. For `O=C([O-])c1ccccc1-c1c2ccc(=O)cc-2oc2cc([O-])ccc12.[Na+].[Na+]` [sodium fluorescein], the “apparent permeability coefficient (Papp)” value in data set [6] (30 min) is 7.17±0.22 ×10^-7 cm/s; in data set [6] (60 min), 7.47±0.25 ×10^-7 cm/s; in data set [6] (90 min), 7.56±0.64 ×10^-7 cm/s; in data set [6] (120 min), 8.35 ± 0.15 ×10-7 cm/s. With “AHVGMSGEEPE [rice protein-derived peptide]”, the calcium-binding capacity in data set [7] is recorded as 55.69 mg/g.

Take “AHVGMSGEEPE-Ca [AHV-Ca, rice peptide–calcium complex]”: in data set [1] (Caco-2 monolayers), the transported calcium is listed as 61.75 ± 13.23 μg/well and the “transported calcium, fold versus CaCl2” value was 2.16 fold. Consider “DHTKE [DHTKE–calcium complex, egg white hydrolysate-derived DHTKE–calcium complex]”, for which the “increase of transported calcium compared to the calcium-free control group” value in data set [1] is recorded as “seven-fold”. Consider “FDHIVY [tilapia collagen-derived peptide]”, for which the “increase of intestinal calcium transport compared with the control group” value (“increase of intestinal calcium transport” for short) in data set [1] is 202%. With “GPAGPHGPVG [tilapia collagen-derived peptide]”, the “increase of intestinal calcium transport” value in data set [1] is 89%. For LVFL, in data set [7], the calcium-binding capacity is given as 79.50 mg/g. VLPVPQK: the calcium-binding capacity in data set [7] is on record as 129.46 mg/g. As to YGTGL, the calcium-binding capacity in data set [7] is listed as 76.03 mg/g. Consider “YQEPVIAPKL [tilapia collagen-derived peptide]”, for which, in data set [1], the “increase of intestinal calcium transport” value was 130%.

Turning to YQEPVPVRGPFPIIV, in data set [8], the “cleavage after culture in Caco-2 monolayers” value is “cleaved into […] and […]”.
